Laboratory results reported in patent US20230365530A1, “QUINAZOLINE-2,4-DIAMINE DERIVATIVE AND PHARMACEUTICAL COMPOSITION FOR PREVENTING OR TREATING CANCER COMPRISING SAME AS ACTIVE INGREDIENT” (THE ASEAN FOUNDATION, priority 2020, published 2023).

What follows are molecules tested against EHMT2 (Euchromatic histone-lysine N-methyltransferase 2) (Homo sapiens (Human), UniProt Q96KQ7) (assay: EHMT2 enzyme inhibition, LANCE TR-FRET). Details: histone H3 peptide, 1 hour at room temperature.
Sequence of EHMT2 (Euchromatic histone-lysine N-methyltransferase 2) (Q96KQ7 whole entry): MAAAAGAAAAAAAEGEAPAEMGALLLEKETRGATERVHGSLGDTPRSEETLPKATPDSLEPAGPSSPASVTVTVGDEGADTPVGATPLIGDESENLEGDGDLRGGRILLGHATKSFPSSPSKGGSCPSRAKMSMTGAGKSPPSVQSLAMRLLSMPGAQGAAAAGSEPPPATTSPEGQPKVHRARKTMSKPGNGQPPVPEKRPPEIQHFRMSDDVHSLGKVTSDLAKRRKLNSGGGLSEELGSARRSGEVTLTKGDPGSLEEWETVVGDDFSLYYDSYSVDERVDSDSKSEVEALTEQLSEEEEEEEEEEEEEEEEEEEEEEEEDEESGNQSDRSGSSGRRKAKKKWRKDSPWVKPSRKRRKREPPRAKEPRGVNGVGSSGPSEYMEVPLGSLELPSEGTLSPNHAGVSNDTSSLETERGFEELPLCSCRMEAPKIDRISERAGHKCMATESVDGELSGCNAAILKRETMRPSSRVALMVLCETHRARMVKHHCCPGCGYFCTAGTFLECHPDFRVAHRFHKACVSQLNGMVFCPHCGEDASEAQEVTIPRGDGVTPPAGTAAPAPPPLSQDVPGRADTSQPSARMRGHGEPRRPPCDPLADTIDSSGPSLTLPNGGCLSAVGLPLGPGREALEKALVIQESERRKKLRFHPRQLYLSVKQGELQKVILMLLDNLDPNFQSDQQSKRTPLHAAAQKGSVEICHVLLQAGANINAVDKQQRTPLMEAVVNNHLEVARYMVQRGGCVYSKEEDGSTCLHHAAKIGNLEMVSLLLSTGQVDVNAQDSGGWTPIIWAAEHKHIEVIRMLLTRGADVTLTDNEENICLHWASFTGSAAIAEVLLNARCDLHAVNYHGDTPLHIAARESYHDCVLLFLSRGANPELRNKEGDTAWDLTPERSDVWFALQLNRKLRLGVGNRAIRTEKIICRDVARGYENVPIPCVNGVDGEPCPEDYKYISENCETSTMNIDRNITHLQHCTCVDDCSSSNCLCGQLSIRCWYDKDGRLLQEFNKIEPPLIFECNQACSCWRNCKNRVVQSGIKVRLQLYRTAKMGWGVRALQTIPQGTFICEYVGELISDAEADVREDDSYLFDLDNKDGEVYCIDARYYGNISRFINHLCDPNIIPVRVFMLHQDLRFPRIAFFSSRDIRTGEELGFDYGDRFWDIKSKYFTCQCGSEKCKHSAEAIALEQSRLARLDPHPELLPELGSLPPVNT
Format: biochemical
Method: In order to analyze the enzyme inhibitory efficacy of the compounds of Examples 1 to 89, EHMT2 (Euchromatic histone-lysine N-methyltransferase 2) enzyme activity was measured using the LANCE TR-FRET™ analysis method of Perkin Elmer. When the EHMT2 enzyme is activated, the 9th lysine residue of the biotinylated-histone peptide is methylated and the EU-conjugated antibody is combined to the methylated histone peptide. Then, when the complex is irradiated with light of excitation wavelength, the complex emits light having a wavelength of 665 nm through FRET phenomenon. Accordingly, fluorescence was measured, and IC50 values were calculated through a software to evaluate the EHMT2 enzyme activity inhibitory effect of the compounds of Examples 1 to 89.
Specific experimental methods are as follows. First, the compounds of Examples 1 to 89 of 1 nM to 100 μM (4× conc.) were put into a 384 well plate (25 μL/well), and 2 μM EEMT2/G9a enzyme (4× conc.) was put into the 384 well plate (25 μL/well). The plate was then centrifuged at 1,500 rpm for 5 seconds after sealing the plate with plate sealing foil. After incubating the EHMT2/G9a enzyme, SAM, and the compounds of Examples above at room temperature for 10 minutes, 2 μM histone H3 peptide (4× conc.) was added to the 384-well plate (25 μL/well). After sealing the plate with plate sealing foil and centrifuging at 1,500 rpm for 5 seconds, an enzymatic reaction was performed at room temperature for 1 hour. Upon completion of the enzyme reaction, 5 μL each of 200 nM Ulight™-Streptavidin (4× conc.) and 8 nM Eu-antibody (4× conc.) was added to each well of the plate. The plate was sealed with plate sealing foil, centrifuged at 1,500 rpm for 5 seconds and reacted at room temperature for 1 hour. The signal values were measured with Envision (Ex 320 nm, Em 665 nm), and all background values obtained by reacting without enzyme were deleted from the measured raw data values. Then, the EHMT2 enzyme activity inhibitory effect of the compounds of Examples 1 to 89 was converted into % values, and compared with the EHMT2 activity when treated with 4% DMSO vehicle (=0 nM compound) as 100%.
`COc1cc2c(NC3CCN(C(C)C)CC3)nc(N3CCCCC3)nc2cc1C#CCCC(=O)N(C)C` [Example 1, 5-(4-((1-isopropylpiperidine-4-yl)amino)-6-methoxy-2-(piperidine-1-yl)quinazoline-7-yl)-N,N-dimethylpentyne-4-amide] gave an IC50 of 10000 to 100000 nM. `COc1cc2c(NC3CCN(C(C)C)CC3)nc(N3CCCCC3)nc2cc1C#CCCC(=O)N1CCCC1` [Example 2, 5-(4-((1-isopropylpiperidine-4-yl)amino)-6-methoxy-2-(piperidine-1-yl)quinazoline-7-yl)-1-(pyrrolidine-1-yl)4-pentyne-1-one] showed an IC50 of 10000 to 100000 nM. In the case of `COc1cc2c(NC3CCN(C(C)C)CC3)nc(N3CCC(F)(F)CC3)nc2cc1C#CCCN(C)C` [Example 4], the IC50 is reported as 1000 to 10000 nM. `COc1cc2c(NC3CCN(C(C)C)CC3)nc(N3CCOCC3)nc2cc1C#CCCN(C)C` [Example 5, 7-(4-(dimethylamino)-1-butyne-1-yl)-N-(1-isopropylpiperidine-4-yl)-6-methoxy-2-morpholinoquinazoline-4-amine] was tested, and the IC50 was 10000 to 100000 nM. For `COc1cc2c(NC3CCN(C(C)C)CC3)nc(N3CCCC3)nc2cc1C#CCCN(C)C` [Example 6, 7-(4-(dimethylamino)-1-butyne-1-yl)-N-(1-isopropylpiperidine-4-yl)-6-methoxy-2-(pyrrolidine-1-yl)quinazoline-4-amine], the IC50 was under 100 nM. In the case of `COc1cc2c(NC3CCN(C(C)C)CC3)nc(N3CCN(C)CC3)nc2cc1C#CCCN(C)C` [Example 7, 7-(4-(dimethylamino)-1-butyne-1-yl)-N-(1-isopropylpiperidine-4-yl)-6-methoxy-2-(4-methylpiperazine-1-yl)quinazoline-4-amine], the IC50 is reported as 100 to 1000 nM. Work on `COc1cc2c(NC3CCN(C(C)C)CC3)nc(N3CCCCCC3)nc2cc1C#CCCN(C)C` [Example 8, 2-(azepane-1-yl)-7-(4-(dimethylamino)-1-butyne-1-yl)-N-(1-isopropylpiperidine-4-yl)-6-methoxyquinazoline-4-amine] yielded an IC50 of under 100 nM. `COc1cc2c(NC3CCN(C(C)C)CC3)nc(N3CCC4(CCCC4)C3)nc2cc1C#CCCN(C)C` [Example 9] was tested, and the IC50 was under 100 nM. In the case of `COc1cc2c(NC3CCN(C(C)C)CC3)nc(N3C[C@@H]4C[C@@H]4[C@@H]3CO)nc2cc1C#CCCN(C)C` [Example 10, ((1S,2R,5R)-3-(7-(4-(dimethylamino)-1-butyne-1-yl)-4-((1-isopropylpiperidine-4-yl)amino)-6-methoxyquinazoline-2-yl)-3-azabicyclo[3.1.0]hexane-2-yl)methanol], the IC50 is reported as 100 to 1000 nM. `COc1cc2c(NC3CCN(C(C)C)CC3)nc(N3CCC(N(C)C)CC3)nc2cc1C#CCCN(C)C` [Example 11, 7-(4-(dimethylamino)-1-butyne-1-yl)-2-(4-(dimethylamino)piperidine-1-yl)-N-(1-isopropylpiperidine-4-yl)-6-methoxyquinazoline-4-amine] showed an IC50 of 1000 to 10000 nM. In the case of `COc1cc2c(NC3CCN(C(C)C)CC3)nc(N3CCCCC3)nc2cc1C#CCCN1CCCCC1` [Example 12, N-(1-isopropylpiperidine-4-yl)-6-methoxy-2-(piperidine-1-yl)-7-(4-(piperidine-1-yl)-1-butyne-1-yl)quinazoline-4-amine], the IC50 is reported as under 100 nM. Work on `CCN(CC)CCC#Cc1cc2nc(N3CCCCC3)nc(NC3CCN(C(C)C)CC3)c2cc1OC` [Example 13, 7-(4-(diethylamino)-1-butyne-1-yl)-N-(1-isopropylpiperidine-4-yl)-6-methoxy-2-(piperidine-1-yl)quinazoline-4-amine] yielded an IC50 of 1000 to 10000 nM. `COc1cc2c(NC3CCN(C(C)C)CC3)nc(N3CCCCC3)nc2cc1C#CCCN1CCC(C)CC1` [Example 15, N-(1-isopropylpiperidine-4-yl)-6-methoxy-7-(4-(4-methylpiperidine-1-yl)-1-butyne-1-yl)-2-(piperidine-1-yl)quinazoline-4-amine] gave an IC50 of 1000 to 10000 nM. In the case of `COc1cc2c(NC3CCN(C(C)C)CC3)nc(N3CCCCC3)nc2cc1C#CCCN1CCCC1` [Example 16, N-(1-isopropylpiperidine-4-yl)-6-methoxy-2-(piperidine-1-yl)-7-(4-(pyrrolidine-1-yl)-1-butyne-1-yl)quinazoline-4-amine], the IC50 is reported as under 100 nM. `COc1cc2c(NC3CCN(C(C)C)CC3)nc(N3CCCN(C)CC3)nc2cc1C#CCCN(C)C` [Example 17, 7-(4-(dimethylamino)-1-butyne-1-yl)-N-(1-isopropylpiperidine-4-yl)-6-methoxy-2-(4-methyl-1,4-diazepane-1-yl)quinazoline-4-amine] was tested, and the IC50 was under 100 nM. `COc1cc2c(NC3CCN(Cc4ccccc4)CC3)nc(N3CCCCC3)nc2cc1C#CCCN(C)C` [Example 18, N-(1-benzylpiperidine-4-yl)-7-(4-(dimethylamino)-1-butyne-1-yl)-6-methoxy-2-(piperidine-1-yl)quinazoline-4-amine] gave an IC50 of 1000 to 10000 nM. `COc1cc2c(N[C@@H]3CCCN(Cc4ccccc4)C3)nc(N3CCCCC3)nc2cc1C#CCCN(C)C` [Example 19, (R)-N-(1-benzylpiperidine-3-yl)-7-(4-(dimethylamino)-1-butyne-1-yl)-6-methoxy-2-(piperidine-1-yl)quinazoline-4-amine] was tested, and the IC50 was 10000 to 100000 nM. Work on `COc1cc2c(NCCN3CCCC3)nc(N3CCCCC3)nc2cc1C#CCCN(C)C` [Example 20, 7-(4-(dimethylamino)-1-butyne-1-yl)-6-methoxy-2-(piperidine-1-yl)-N-(2-(pyrrolidine-1-yl)ethyl)quinazoline-4-amine] yielded an IC50 of 1000 to 10000 nM. With `COc1cc2c(NCCCN(C)C)nc(N3CCCCC3)nc2cc1C#CCCN(C)C` [Example 21, N1-(7-(4-(dimethylamino)-1-butyne-1-yl)-6-methoxy-2-(piperidine-1-yl)quinazoline-4-yl)-N3,N3-dimethylpropane-1,3-diamine] the IC50 was 100 to 1000 nM. With `COc1cc2c(NC3CCN(C)CC3)nc(N3CCCCC3)nc2cc1C#CCCN(C)C` [Example 22, 7-(4-(dimethylamino)-1-butyne-1-yl)-6-methoxy-N-(1-methylpiperidine-4-yl)-2-(piperidine-1-yl)quinazoline-4-amine] the IC50 was 100 to 1000 nM. `COc1cc2c(NC3CCCCC3)nc(N3CCCCC3)nc2cc1C#CCCN(C)C` [Example 23, N-cyclohexyl-7-(4-(dimethylamino)-1-butyne-1-yl)-6-methoxy-2-(piperidine-1-yl)quinazoline-4-amine] gave an IC50 of 10000 to 100000 nM. `COc1cc2c(NC3CCN(C4CC4)CC3)nc(N3CCCCC3)nc2cc1C#CCCN(C)C` [Example 24, N-(1-cyclopropylpiperidine-4-yl)-7-(4-(dimethylamino)-1-butyne-1-yl)-6-methoxy-2-(piperidine-1-yl)quinazoline-4-amine] showed an IC50 of under 100 nM. In the case of `COc1cc2c(NC3CCN(c4ccccc4)CC3)nc(N3CCCCC3)nc2cc1C#CCCN(C)C` [Example 25, 7-(4-(dimethylamino)-1-butyne-1-yl)-6-methoxy-N-(1-phenylpiperidine-4-yl)-2-(piperidine-1-yl)quinazoline-4-amine], the IC50 is reported as 1000 to 10000 nM. Work on `COc1cc2c(NCc3cccnc3)nc(N3CCCCC3)nc2cc1C#CCCN(C)C` [Example 26, 7-(4-(dimethylamino)-1-butyne-1-yl)-6-methoxy-2-(piperidine-1-yl)-N-(pyridine-3-ylmethyl)quinazoline-4-amine] yielded an IC50 of 100 to 1000 nM. In the case of `COc1cc2c(NC3CC(C)(C)NC(C)(C)C3)nc(N3CCCCC3)nc2cc1C#CCCN(C)C` [Example 27, 7-(4-(dimethylamino)-1-butyne-1-yl)-6-methoxy-2-(piperidine-1-yl)-N-(2,2,6,6,-tetramethylpiperidine-4-yl)quinazoline-4-amine], the IC50 is reported as 100 to 1000 nM. With `COc1cc2c(NCCN(C)C)nc(N3CCCCC3)nc2cc1C#CCCN(C)C` [Example 28, N1-(7-(4-(dimethylamino)-1-butyne-1-yl)-6-methoxy-2-(piperidine-1-yl)quinazoline-4-yl)-N2,N2-dimethylethane-1,2-diamine] the IC50 was 100 to 1000 nM. Work on `COc1cc2c(NC3CCN(C(C)C)CC3)nc(N3CCCCC3)nc2cc1C#CCCN1CC[C@H](F)C1` [Example 29, (S)-7-(4-(3-fluoropyrrolidine-1-yl)-1-butyne-1-yl)-N-(1-isopropylpiperidine-4-yl)-6-methoxy-2-(piperidine-1-yl)quinazoline-4-amine] yielded an IC50 of 100 to 1000 nM. For `COc1cc2c(NC3CCN(C(C)C)CC3)nc(N3CCCCC3)nc2cc1C#CCCN1CC[C@@H](F)C1` [Example 30, (R)-7-(4-(3-fluoropyrrolidine-1-yl)-1-butyne-1-yl)-N-(1-isopropylpiperidine-4-yl)-6-methoxy-2-(piperidine-1-yl)quinazoline-4-amine], the IC50 was 100 to 1000 nM. `COc1cc2c(NCC3CCN(C)CC3)nc(N3CCCCC3)nc2cc1C#CCCN(C)C` [Example 31, 7-(4-(dimethylamino)-1-butyne-1-yl)-6-methoxy-N-((1-methylpiperidine-4-yl)methyl)-2-(piperidine-1-yl)quinazoline-4-amine] was tested, and the IC50 was 1000 to 10000 nM.
